Assay results from patent publication US20230240290A1, “USE OF (Z)-3-HEXENYL ESTERS AND METHOD FOR PROTECTING PLANTS AGAINST PESTS” (UNIVERSITAT POLITÈCNICA DE VALÈNCIA, priority 2020, published 2023).

Legend:
[1] = tested on: LOX2 (precursor of JA jasmonic acid); assay: Transcriptional response of LOX2 in Carrizo citrange plants exposed to the volatile; type: in vivo; details: intact Carrizo citrange plants exposed 24 h; n=6
Procedure: Two weeks after seed germination, the seedlings were individually transplanted into pots (8×8×8 cm). The plants were kept in a greenhouse with a plastic cover at approximate climatic conditions of 25±5° C., a relative humidity of 65%±5%, and a natural light photoperiod, about 14:10 h (light:dark). Carrizo citrange plants that had not received any pesticide treatment at 8 weeks of age (approximately 20 cm tall) were used. The volatile (Z)-3-hexenyl propanoate was obtained from Sigma-Aldrich (St. Louis, Mo., USA). The volatile was exposed by using a 2×2 cm piece of filter paper on which 10 μl of a solution containing the corresponding volatile at a concentration of 1:10,000 [(Z)-3-hexenyl propanoate:methanol] was impregnated as an emitting source of the corresponding volatile (Pérez-Hedo, M. et al. Biocontrol, 63: 203-213 (2018)). […]
The methodology followed for the extraction and quantification of gene expression was described by Pérez-Hedo et al. Journal of Pest Science 3: 543-554 (2015). The primers used were forward primer: 5′-[…]-3′ (SEQ ID NO: 11) and reverse primer: 5′-[…]-3′ (SEQ ID NO: 12) for the quantification of LOX2, forward primer: 5′-[…]-3′ (SEQ ID NO: 13) and reverse primer: 5′-[…]-3′ (SEQ ID NO: 14) for PAL and forward primer: 5′-[…]-3′ (SEQ ID NO: 15) and reverse primer: 5′-[…]-3′ (SEQ ID NO: 16) for the NPR5 gene. […]

Tetranychus urticae = assay: Development of Tetranychus urticae on exposed tomato plants; type: in vivo; details: T. urticae, 21 days after release
Procedure: It was also studied whether the defensive activation induced by exposure to (Z)-3-hexenyl propanoate could influence the development of two highly important phytophages in tomato cultivation, the red spider, T. urticae, and the lepidoptera T. absoluta. The individuals used in these experiments came from the captive breeding of these species that are kept in the IVIA described above. The exposure time of the plant to the volatile was tested on both phytophages in two different ways, one where the plant was only exposed to the volatile for 24 hours and then the herbivore to be assayed was immediately released, and the other where the volatile was permanently exposed throughout the experiment.
For this purpose, two climatic chambers were used under the same environmental conditions [25±2° C., 65±5% HR and 14:10 h (L:D) photoperiod], wherein, to avoid interference between the volatiles, one was assigned to the (Z)-3-hexenyl propanoate treatments and one to the control treatment. […]
Eight tomato plants (Lycopersicon esculentum cv. Moneymaker) were introduced in each cage. […] Naked eye sampling was carried out seven, 14, and 21 days after the release of T. urticae, where the total number of T. urticae females in each plant was counted.

`CC/C=C\CCOC(=O)CC` [(Z)-3-hexenyl propanoate] was tested, and the “Transcriptional response of LOX2 compared to control” value [1] was “significantly overexpressed”, the “Reduction in the number of mites per plant with respect to the control” value (Tetranychus urticae; plant exposed for 24 h before release) was 50.3±6.3% and the “Reduction in the number of mites per plant with respect to the control” value (Tetranychus urticae; plant exposed throughout the entire experiment) was 83.9±5.0%.
